# Measurements from patent US20240293551A1, “USE OF ST-TYPE LIPID COMPOUNDS IN PREPARATION OF NUCLEIC ACID DELIVERY REAGENT AND RELATED PRODUCT” (INSTITUTE OF BASIC MEDICAL SCIENCES CHINESE ACADEMY OF …, priority 2021, published 2024).
# Test system: PGY-sRNA-26
# Assay: In vivo delivery study of lipid-nucleic acid mixture (oral gavage, RT-qPCR of PGY-sRNA-26 in tissues)
# Set-up: species or system mouse
# Conditions: C57BL/6 mice, gavage, 100 μg lipid: 10 nmol PGY-sRNA-26, 12 hours; for oral delivery of single-stranded sRNA nucleic acids into mouse intestinal tissue: intestine; for delivery efficacy over each tissue and blood tested (broad-spectrum delivery): all tissues and blood tested
# Protocol: 10 nmol of small RNA (as shown in Table 2) was dissolved in 400 μl of DEPC-treated water in a glass tube, 10 μl of the corresponding lipid stock solution was added such that the lipid mass in the system was 100 μg. The mixture was mixed thoroughly, heated in a 90° C. water bath for 15 minutes, and then cooled naturally to obtain the lipid nucleic acid mixture of lipid and small RNA.
# C57BL/6 male mice, approximately 6 weeks old, weighing 20-24 g, were obtained from Beijing Vital River Laboratory Animal Technology Co., Ltd. The mice were housed in the SPF-grade animal facility at the Animal Center of the Institute of Basic Medical Sciences, Chinese Academy of Medical Sciences. The mice were fasted for 12 hours before gavage administration.
# The resultant lipid nucleic acid mixture was orally administered to each mouse at a dose of 100 μg lipid: 10 nmol single-stranded 3′-methylated small RNA PGY-sRNA-26.
# • 1) Blank group (n=4): mice were administered with 500 μl saline by gavage, this group served as a blank control; • 2) Free uptake group (n=4): mice were directly administered with small RNA PGY-sRNA-26 solution (10 nmol/mouse, 500 μl) by gavage, this group served as a negative control; • 3) Lipid-treated group (n=4): mice were administered with 500 μl lipid nucleic acid mixture prepared in step 2 by gavage.
# After 12 hours of gavage administration, 500 μl blood from the eyeball of each mouse was sampled, added to 1.5 ml Trizol Reagent LS (purchased from Invitrogen), thoroughly mixed for lysis. 3 ml of Trizol Reagent LSwas added to tissue samples and homogenized for complete lysis, wherein the sampled tissues include heart, liver, spleen, lung, kidney, stomach, intestine, brain, blood, femur. RNA was extracted from 1 ml of the blood or the tissue lysate following the steps below: • Centrifuge at 4° C., 12,000 rpm for 5 min, discard the precipitate, transfer Trizol to a new centrifuge tube; • Add chloroform at 200 μL chloroform/mL Trizol, shake well, stand at room temperature for 5 min; • Centrifuge at 4° C., 12,000 rpm for 15 min; • Take the upper aqueous phase to another centrifuge tube, add isopropanol at 0.4 mL isopropanol/mL Trizol, mix well, and stand at low temperature for 10-20 min; • Centrifuge at 4° C., 12,000 rpm for 15 min, discard the supernatant, RNA precipitated at the bottom of the tube; • Add 1 mL of 75% ethanol, gently shake the centrifuge tube, suspend the precipitate; • Centrifuge at 4° C., 12,000 rpm for 15 min, discard the supernatant, add 1 mL of 75% ethanol, gently shake the centrifuge tube, suspend the precipitate; • Centrifuge at 4° C., 12,000 rpm for 15 min, discard the supernatant, air-dry at room temperature, dissolve RNA samples in 50 μL RNase-free H2O, measure OD value to quantify RNA concentration. 3.3 Reverse Transcription of sRNA to cDNA:
# The reverse transcription system is as follows: Template RNA (200 ng/μL) 10 μL, 10×RT Buffer 2.0 μL, 25×dNTP Mix (100 mM) 0.8 μL, U6 RT stem-loop primer (10 μM) 2.0 μL, PGY-sRNA-26 RT stem-loop primer (10 μM) 2.0 μL, MultiScribe™ Reverse Transcriptase (50 U/μL) 1.0 μL, RNAse Inhibitor (40 U/μL) 1.0 μL, nuclease-free H2O 1.2 μL. After transient centrifugation, the reverse transcription system was placed in a PCR machine with the following reaction conditions: (1) 25° C., 10 min; (2) 37° C., 120 min; (3) 85° C., 5 min; (4) 4° C., stop reaction. After the reaction, add 20 μL RNAse-free ddH2O, adjust the final volume to 40 μL. The stem-loop primers used in this reverse transcription process were synthesized by Beijing Tianyi Huiyuan Biotechnology Co., Ltd. (U6 was used as a standard reference gene to calculate its relative expression, because U6 RT primer was used as a reference gene in relative quantification of RT-qPCR reactions for small RNA): […]
compound,measurement,value
C[C@]12CCC(=O)C=C1CC[C@@H]1[C@@H]2[C@@H](O)C[C@@]2(C)[C@H]1CC[C@]2(O)C(=O)CO [Lipid 566],oral delivery of single-stranded sRNA nucleic acids into mouse blood,can effectively orally deliver
same,oral delivery of single-stranded sRNA nucleic acids into mouse femur,can effectively orally deliver
same,oral delivery of single-stranded sRNA nucleic acids into mouse heart tissue,can effectively orally deliver
same,oral delivery of single-stranded sRNA nucleic acids into mouse intestinal tissue,can effectively orally deliver
same,oral delivery of single-stranded sRNA nucleic acids into mouse kidney tissue,can effectively orally deliver
same,oral delivery of single-stranded sRNA nucleic acids into mouse liver tissue,can effectively orally deliver
same,oral delivery of single-stranded sRNA nucleic acids into mouse stomach tissue,can effectively orally deliver
CCC(=O)O[C@H]1CC[C@H]2[C@@H]3CCC4=CC(=O)CC[C@]4(C)[C@H]3CC[C@]12C [Lipid 568],delivery efficacy over each tissue and blood tested (broad-spectrum delivery),exhibited the best delivery efficacy
same,oral delivery of single-stranded sRNA nucleic acids into mouse blood,can effectively orally deliver
same,oral delivery of single-stranded sRNA nucleic acids into mouse brain tissue,can effectively orally deliver
same,oral delivery of single-stranded sRNA nucleic acids into mouse femur,can effectively orally deliver
same,oral delivery of single-stranded sRNA nucleic acids into mouse heart tissue,can effectively orally deliver
same,oral delivery of single-stranded sRNA nucleic acids into mouse intestinal tissue,can effectively orally deliver
same,oral delivery of single-stranded sRNA nucleic acids into mouse kidney tissue,can effectively orally deliver
same,oral delivery of single-stranded sRNA nucleic acids into mouse liver tissue,can effectively orally deliver
same,oral delivery of single-stranded sRNA nucleic acids into mouse lung tissue,can effectively orally deliver
same,oral delivery of single-stranded sRNA nucleic acids into mouse spleen tissue,can effectively orally deliver
same,oral delivery of single-stranded sRNA nucleic acids into mouse stomach tissue,can effectively orally deliver
CC(=O)OCC(=O)[C@@]1(O)CC[C@H]2[C@@H]3CCC4=CC(=O)CC[C@]4(C)[C@H]3[C@@H](O)C[C@@]21C [Lipid 582],delivery efficacy over each tissue and blood tested (broad-spectrum delivery),exhibited the best delivery efficacy
same,oral delivery of single-stranded sRNA nucleic acids into mouse blood,can effectively orally deliver
same,oral delivery of single-stranded sRNA nucleic acids into mouse brain tissue,can effectively orally deliver
same,oral delivery of single-stranded sRNA nucleic acids into mouse femur,can effectively orally deliver
same,oral delivery of single-stranded sRNA nucleic acids into mouse heart tissue,can effectively orally deliver
same,oral delivery of single-stranded sRNA nucleic acids into mouse intestinal tissue,can effectively orally deliver
same,oral delivery of single-stranded sRNA nucleic acids into mouse kidney tissue,can effectively orally deliver
same,oral delivery of single-stranded sRNA nucleic acids into mouse liver tissue,can effectively orally deliver
same,oral delivery of single-stranded sRNA nucleic acids into mouse lung tissue,can effectively orally deliver
same,oral delivery of single-stranded sRNA nucleic acids into mouse spleen tissue,can effectively orally deliver
same,oral delivery of single-stranded sRNA nucleic acids into mouse stomach tissue,can effectively orally deliver
"CC(C)CCC[C@@H](C)[C@H]1CC[C@H]2[C@@H]3C[C@@H](O)[C@@]4(O)C[C@@H](O)CC[C@]4(C)[C@H]3CC[C@]12C [Lipid 551, Cholestan-3,5,6-triol (3S,5R,6R,8S,9S,10R,13R,14S,17R)-10,13-dimethyl-17-[(2R)-6-methylheptan-2-yl]-1,2,3,4,6,7,8,9,11,12,14,15,16,17-tetradecahydrocyclopenta[a]phenanthrene-3,5,6-triol]",delivery efficacy over each tissue and blood tested (broad-spectrum delivery),exhibited the best delivery efficacy
same,oral delivery of single-stranded sRNA nucleic acids into mouse blood,can effectively orally deliver
same,oral delivery of single-stranded sRNA nucleic acids into mouse brain tissue,can effectively orally deliver
same,oral delivery of single-stranded sRNA nucleic acids into mouse femur,can effectively orally deliver
same,oral delivery of single-stranded sRNA nucleic acids into mouse heart tissue,can effectively orally deliver
same,oral delivery of single-stranded sRNA nucleic acids into mouse intestinal tissue,can effectively orally deliver
same,oral delivery of single-stranded sRNA nucleic acids into mouse kidney tissue,can effectively orally deliver
same,oral delivery of single-stranded sRNA nucleic acids into mouse liver tissue,can effectively orally deliver
same,oral delivery of single-stranded sRNA nucleic acids into mouse lung tissue,can effectively orally deliver
same,oral delivery of single-stranded sRNA nucleic acids into mouse spleen tissue,can effectively orally deliver
same,oral delivery of single-stranded sRNA nucleic acids into mouse stomach tissue,can effectively orally deliver
